Laboratory results as given in ChEMBL document CHEMBL1201862, “PubChem BioAssay data set” (2004).
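Dose response: 5 concentrations. Exposure: 48 h. Format: 96-well plates. Endpoint: linear interpolation; highest concentration if not reached. GI50 = concentration required for 50% inhibition of growth.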 Active and inactive are the calls of the source. Cut-off read from the data, not from the text of the source: active = GI50 up to about 1.1 µM and inactive = higher.

What was measured:
Test in all cases: growth of human tumour cells (NCI), 48 h
[1] = tested on: DLD-1
[2] = tested on: RXF 393
[3] = tested on: 786-0
[4] = tested on: DMS-114
[5] = tested on: SK-OV-3
[6] = tested on: OVCAR-5
[7] = tested on: OVCAR-8
[8] = tested on: NCI-H23
[9] = tested on: SF-268
[10] = tested on: UO-31
[11] = tested on: HCT-15
[12] = tested on: COLO 205
[13] = tested on: OVCAR-3
[14] = tested on: A549
[15] = tested on: SF-295
[16] = tested on: KM12
[17] = tested on: M14
[18] = tested on: CCRF-CEM
[19] = tested on: HOP-18
[20] = tested on: TK-10
[21] = tested on: IGROV-1
[22] = tested on: MOLT-4
[23] = tested on: HCC 2998
[24] = tested on: SF-539
[25] = tested on: SK-MEL-5
[26] = tested on: U-251
[27] = tested on: NCI-H226
[28] = tested on: SNB-19
[29] = tested on: HT-29
[30] = tested on: XF498
[31] = tested on: SW-620
[32] = tested on: LXFL 529
[33] = tested on: HL-60
[34] = tested on: ACHN
[35] = tested on: SNB-75
[36] = tested on: HOP-62
[37] = tested on: OVCAR-4
[38] = tested on: SR
[39] = tested on: HCT-116
[40] = tested on: SK-MEL-28
[41] = tested on: KM-20L2
[42] = tested on: K562
[43] = tested on: CAKI-1
[44] = tested on: NCI-H522
[45] = tested on: Malme-3M
[46] = tested on: RXF 631
[47] = tested on: UACC-257
[48] = tested on: RPMI-8226
[49] = tested on: M19-MEL
[50] = tested on: UACC-62
[51] = tested on: NCI-H460
[52] = tested on: SN12C
[53] = tested on: EKVX
[54] = tested on: LOX IMVI
[55] = tested on: HOP-92
[56] = tested on: SK-MEL-2
[57] = tested on: SNB-78
[58] = tested on: A498
[59] = tested on: DMS-273

Cc1ccc(C(=O)CC2=Nc3nnc(CCCCCCCc4nnc5n4C(=O)C(CC(=O)c4ccc(C)cc4)=N5)n3C2=O)cc1
GI50 [1]: > 100 µM (inactive) | GI50 [2]: > 100 µM (inactive) | GI50 [3]: > 100 µM (inactive) | GI50 [4]: > 100 µM (inactive) | GI50 [5]: > 100 µM (inactive) | GI50 [6]: > 100 µM (inactive) | GI50 [7]: > 100 µM (inactive) | GI50 [8]: > 100 µM (inactive) | GI50 [9]: > 100 µM (inactive) | GI50 [10]: > 100 µM (inactive) | GI50 [11]: > 100 µM | GI50 [12]: > 100 µM (inactive) | GI50 [13]: > 100 µM (inactive) | GI50 [14]: > 100 µM (inactive) | GI50 [15]: > 100 µM (inactive) | GI50 [16]: > 100 µM (inactive) | GI50 [17]: > 100 µM (inactive) | GI50 [18]: > 100 µM (inactive) | GI50 [19]: > 100 µM (inactive) | GI50 [20]: > 100 µM (inactive) | GI50 [21]: > 100 µM (inactive) | GI50 [22]: > 100 µM (inactive) | GI50 [23]: > 100 µM (inactive) | GI50 [24]: > 100 µM (inactive) | GI50 [25]: > 100 µM (inactive) | GI50 [26]: > 100 µM (inactive) | GI50 [27]: > 100 µM (inactive) | GI50 [28]: > 100 µM (inactive) | GI50 [29]: > 100 µM (inactive) | GI50 [30]: > 100 µM (inactive) | GI50 [31]: > 100 µM (inactive) | GI50 [32]: > 100 µM (inactive) | GI50 [33]: > 100 µM (inactive) | GI50 [34]: > 100 µM (inactive) | GI50 [35]: 24.2 µM (inactive) | GI50 [36]: > 100 µM (inactive) | GI50 [37]: > 100 µM (inactive) | GI50 [38]: > 100 µM (inactive) | GI50 [39]: > 100 µM (inactive) | GI50 [40]: > 100 µM (inactive) | GI50 [41]: > 100 µM (inactive) | GI50 [42]: > 100 µM (inactive) | GI50 [43]: > 100 µM (inactive) | GI50 [44]: > 100 µM (inactive) | GI50 [45]: > 100 µM (inactive) | GI50 [46]: > 100 µM (inactive) | GI50 [47]: > 100 µM (inactive) | GI50 [48]: > 100 µM (inactive) | GI50 [49]: > 100 µM (inactive) | GI50 [50]: > 100 µM (inactive) | GI50 [51]: > 100 µM (inactive) | GI50 [52]: > 100 µM (inactive) | GI50 [53]: > 100 µM (inactive) | GI50 [54]: > 100 µM (inactive)

C/C(=N\N(C)C)c1sc(-n2nc(-c3ccccc3)cc2-c2ccccc2)nc1C
GI50 [55]: 61.9 µM (inactive) | GI50 [1]: > 100 µM (inactive) | GI50 [2]: > 100 µM (inactive) | GI50 [3]: > 100 µM (inactive) | GI50 [4]: 72.6 µM (inactive) | GI50 [5]: > 100 µM (inactive) | GI50 [6]: 21 µM (inactive) | GI50 [7]: > 100 µM (inactive) | GI50 [8]: > 100 µM (inactive) | GI50 [9]: > 100 µM (inactive) | GI50 [10]: > 100 µM (inactive) | GI50 [11]: > 100 µM | GI50 [12]: > 100 µM (inactive) | GI50 [13]: 47.9 µM (inactive) | GI50 [14]: > 100 µM (inactive) | GI50 [15]: 51.2 µM (inactive) | GI50 [16]: > 100 µM (inactive) | GI50 [17]: > 100 µM (inactive) | GI50 [18]: > 100 µM (inactive) | GI50 [19]: > 100 µM (inactive) | GI50 [20]: 72.8 µM (inactive) | GI50 [21]: > 100 µM (inactive) | GI50 [22]: 84.3 µM (inactive) | GI50 [23]: > 100 µM (inactive) | GI50 [56]: > 100 µM (inactive) | GI50 [24]: > 100 µM (inactive) | GI50 [25]: > 100 µM (inactive) | GI50 [26]: 91.6 µM (inactive) | GI50 [57]: > 100 µM (inactive) | GI50 [27]: > 100 µM (inactive) | GI50 [28]: > 100 µM (inactive) | GI50 [29]: > 100 µM (inactive) | GI50 [30]: > 100 µM (inactive) | GI50 [31]: > 100 µM (inactive) | GI50 [32]: > 100 µM (inactive) | GI50 [33]: > 100 µM (inactive) | GI50 [34]: > 100 µM (inactive) | GI50 [35]: 15.2 µM (inactive) | GI50 [36]: > 100 µM (inactive) | GI50 [37]: > 100 µM (inactive) | GI50 [38]: > 100 µM (inactive) | GI50 [39]: > 100 µM (inactive) | GI50 [40]: > 100 µM (inactive) | GI50 [41]: > 100 µM (inactive) | GI50 [42]: > 100 µM (inactive) | GI50 [43]: > 100 µM (inactive) | GI50 [44]: > 100 µM (inactive) | GI50 [45]: > 100 µM (inactive) | GI50 [46]: 43.9 µM (inactive) | GI50 [58]: > 100 µM (inactive) | GI50 [47]: > 100 µM (inactive) | GI50 [49]: > 100 µM (inactive) | GI50 [59]: > 100 µM (inactive) | GI50 [50]: > 100 µM (inactive) | GI50 [51]: > 100 µM (inactive) | GI50 [52]: > 100 µM (inactive) | GI50 [53]: 8.22 µM (inactive) | GI50 [54]: 16.3 µM (inactive)
